Assay results published in US7354579B2, “Method of treating cancer with a VEGF antagonist and an anti-proliferative agent” (Regeneron Pharmaceuticals, Inc., priority 2003, dated 2008).

System: OVCAR3 cells
Assay: OVCAR3 i.p. tumor model in athymic nude mice: tumor burden and ascites after 4 weeks of treatment
Format: in vivo
Conditions: for % Reduction Ascites / % Reduction Tumor Burden: compared to controls; for % Reduction Ascites: ascites volume at end of 4 weeks of treatment; for % Reduction Tumor Burden: treatment for 4 weeks starting 2 weeks after i.p. inoculation, VEGF-Trap s.c. twice weekly, paclitaxel i.p. 3 times weekly; for Mice with tumors in the hilus of the liver / Mice with tumors on the diaphragm: end of experiment; for Ascites formation (in words): end of 4 weeks of treatment
Protocol: Experimental Design. Two experiments, each with 4 groups of female athymic nude mice (5-7 wks, 20 mice/experiment, total n=40) were inoculated i.p. with OVCAR3 cells. Two weeks after inoculation, 1 group was treated with VEGF-Trap s.c. twice weekly+paclitaxel i.p. 3 times weekly for 4 weeks. The second group was treated with VEGF-Trap alone. The third group was treated with paclitaxel alone. The remaining group was treated with vehicle. At the end of the experiments, the mice were euthanized, the volume of ascites was measured and all visible tumor was excised and weighed.

Compound | % Reduction Ascites | % Reduction Ascites (listed as Paclitaxel) | % Reduction Tumor Burden | % Reduction Tumor Burden (listed as paclitaxel) | Mice with tumors in the hilus of the liver | Mice with tumors on the diaphragm | % Reduction Tumor Burden (listed as VEGF-Trap) | Ascites formation (in words) (listed as VEGF trap) | Ascites formation (in words) (listed as VEGF-Trap)
CC(=O)O[C@H]1C(=O)[C@@]2(C)[C@H]([C@H](OC(=O)c3ccccc3)[C@]3(O)C[C@H](OC(=O)[C@H](O)[C@@H](NC(=O)c4ccccc4)c4ccccc4)C(C)=C1C3(C)C)[C@]1(OC(C)=O)CO[C@@H]1C[C@@H]2O [Taxol ™, paclitaxel, reference compound] | 85.4% | 85.5% | 55.9% | 54.8% | 60% | 80% |  |  | 
VEGF Trap: VEGF-receptor based trap antagonist VEGFR1R2-FcΔC1(a) (SEQ ID NOs: 1-2), capable of high affinity binding of VEGF | 96.5% |  | 56.7% |  | 60% | Ninety | 55.7% | no demonstrable ascites | Virtually no ascites developed
